Laboratory results: patent publication US12486300B2, “Mithramycin oxime derivatives having increased selectivity and anti-cancer activity” (University of Kentucky Research Foundation, priority 2018, dated 2025)

Test system: TC32 Ewing sarcoma cells, expressing EWS-FLI1
Test: Growth inhibition assay, TC32 cells
Assay type: cell-based
Conditions: ratio of GI50 PC3 to TC32
Description: Growth inhibition assay to assess cytotoxicity in ETS vs non-ETS expressing cells. Cells were seeded in clear 96-well plates (VWR, Radnor, PA). Seeding densities were optimized for each cell line to support 5 days of linear growth. Following a 24 hours attachment period, cells in duplicate wells were treated with half-log increments of respective compounds (0 nM and 0.3 nM-10 μM). Working stocks were prepared from an initial 10 mM drug stock diluted in either 100% ethanol or dimethyl sulfoxide (DMSO). All wells contained a final concentration of 0.1% (v/v) respective organic solvent. Immediately following treatment, cell viability was measured for vehicle control (Day 0) wells. Cell viability was measured in the remaining wells after 72 hours of incubation with compound or vehicle control (Day 3).
Percent viability, relative to the initial cell seeding concentration, was calculated by ((TreatmentDay3−Vehicle ControlDay0)/(Vehicle ControlDay3−Vehicle ControlDay0))×100. Percent cell viability was plotted as a function of compound concentration (Log [M]) and the data were fit using a 3-parameter non-linear model with fixed Hill slope constant and 4-parameter non-linear model with variable Hill slope constant. The model with the best curve fit was used to estimate the GI50 in GraphPad Prism 7.0 software (GraphPad Software, La Jolla, CA). The 3-parameter equation used was Y=Bottom+(Top−Bottom)/(1+10[…]((X−Log[IC50]))). The 4-parameter equation used was Y=Bottom+(Top−Bottom)/(1+10[…]((Log[IC50]−X)*Hillslope)). Top and Bottom are plateaus in the units of the Y-axis (response). IC50 is the response (Y-axis) halfway between Top and Bottom plateaus.
All compounds were tested at least once in multi-well replicates and each experiment included one a control compound (i.e., MTM) to ensure the stable response of the cell lines. The selectivity index was estimated by determining the ratio of GI50 estimates between ETS fusion negative and ETS fusion positive cell lines.

Compound	PC:TC32 (cellular selectivity)
COC(C(=NOCC(=O)NC(Cc1c[nH]c2ccccc12)C(=O)NCc1c[nH]c2ccccc12)C(O)C(C)O)C1Cc2cc3cc(OC4CC(OC5CC(O)C(O)C(C)O5)C(O)C(C)O4)c(C)c(O)c3c(O)c2C(=O)C1OC1CC(OC2CC(OC3CC(C)(O)C(O)C(C)O3)C(O)C(C)O2)C(O)C(C)O1 (stereo not drawn) [MTM (48)]	2.30
COC(=O)C(Cc1ccccc1)NC(=O)C(Cc1c[nH]c2ccccc12)NC(=O)CON=C(C(O)C(C)O)C(OC)C1Cc2cc3cc(OC4CC(OC5CC(O)C(O)C(C)O5)C(O)C(C)O4)c(C)c(O)c3c(O)c2C(=O)C1OC1CC(OC2CC(OC3CC(C)(O)C(O)C(C)O3)C(O)C(C)O2)C(O)C(C)O1 (stereo not drawn) [MTM (51)]	2.2
COC(C(=NOCC(=O)NCCc1ccccc1)C(O)C(C)O)C1Cc2cc3cc(OC4CC(OC5CC(O)C(O)C(C)O5)C(O)C(C)O4)c(C)c(O)c3c(O)c2C(=O)C1OC1CC(OC2CC(OC3CC(C)(O)C(O)C(C)O3)C(O)C(C)O2)C(O)C(C)O1 (stereo not drawn) [MTM (29)]	1.58
COC(C(=NOCCOc1ccc(C(F)(F)F)cc1)C(O)C(C)O)C1Cc2cc3cc(OC4CC(OC5CC(O)C(O)C(C)O5)C(O)C(C)O4)c(C)c(O)c3c(O)c2C(=O)C1OC1CC(OC2CC(OC3CC(C)(O)C(O)C(C)O3)C(O)C(C)O2)C(O)C(C)O1 (stereo not drawn) [MTM (16)]	7.91
COC(C(=NOCC(C)C)C(O)C(C)O)C1Cc2cc3cc(OC4CC(OC5CC(O)C(O)C(C)O5)C(O)C(C)O4)c(C)c(O)c3c(O)c2C(=O)C1OC1CC(OC2CC(OC3CC(C)(O)C(O)C(C)O3)C(O)C(C)O2)C(O)C(C)O1 (stereo not drawn) [MTM (7E)]	1.04
COC(C(=NOCC(=O)NC(Cc1c[nH]c2ccccc12)C(=O)NC(C)CO)C(O)C(C)O)C1Cc2cc3cc(OC4CC(OC5CC(O)C(O)C(C)O5)C(O)C(C)O4)c(C)c(O)c3c(O)c2C(=O)C1OC1CC(OC2CC(OC3CC(C)(O)C(O)C(C)O3)C(O)C(C)O2)C(O)C(C)O1 (stereo not drawn) [MTM (55)]	2.7
COC(C(=NOCC(=O)NC(Cc1c[nH]c2ccccc12)C(=O)NC(Cc1c[nH]c2ccccc12)c1nc(C)no1)C(O)C(C)O)C1Cc2cc3cc(OC4CC(OC5CC(O)C(O)C(C)O5)C(O)C(C)O4)c(C)c(O)c3c(O)c2C(=O)C1OC1CC(OC2CC(OC3CC(C)(O)C(O)C(C)O3)C(O)C(C)O2)C(O)C(C)O1 (stereo not drawn) [MTM (58)]	2.4
COC(C(=NOCC(=O)Nc1ccc2ncccc2c1)C(O)C(C)O)C1Cc2cc3cc(OC4CC(OC5CC(O)C(O)C(C)O5)C(O)C(C)O4)c(C)c(O)c3c(O)c2C(=O)C1OC1CC(OC2CC(OC3CC(C)(O)C(O)C(C)O3)C(O)C(C)O2)C(O)C(C)O1 (stereo not drawn) [MTM (74)]	66.6
COC(C(=NOC(C)(C)C)C(O)C(C)O)C1Cc2cc3cc(OC4CC(OC5CC(O)C(O)C(C)O5)C(O)C(C)O4)c(C)c(O)c3c(O)c2C(=O)C1OC1CC(OC2CC(OC3CC(C)(O)C(O)C(C)O3)C(O)C(C)O2)C(O)C(C)O1 (stereo not drawn) [MTM (15E)]	1.87
COC(C(=NOCC(=O)NC(Cc1c[nH]c2ccccc12)C(=O)Nc1ccccc1)C(O)C(C)O)C1Cc2cc3cc(OC4CC(OC5CC(O)C(O)C(C)O5)C(O)C(C)O4)c(C)c(O)c3c(O)c2C(=O)C1OC1CC(OC2CC(OC3CC(C)(O)C(O)C(C)O3)C(O)C(C)O2)C(O)C(C)O1 (stereo not drawn) [MTM (47)]	2.7
COC(C(=NOCC(=O)Nc1ccc2[nH]c(C)cc2c1)C(O)C(C)O)C1Cc2cc3cc(OC4CC(OC5CC(O)C(O)C(C)O5)C(O)C(C)O4)c(C)c(O)c3c(O)c2C(=O)C1OC1CC(OC2CC(OC3CC(C)(O)C(O)C(C)O3)C(O)C(C)O2)C(O)C(C)O1 (stereo not drawn) [MTM (72)]	20.9
COC(C(=NOCC(=O)Nc1ccc2c(c1)CC(=O)N2)C(O)C(C)O)C1Cc2cc3cc(OC4CC(OC5CC(O)C(O)C(C)O5)C(O)C(C)O4)c(C)c(O)c3c(O)c2C(=O)C1OC1CC(OC2CC(OC3CC(C)(O)C(O)C(C)O3)C(O)C(C)O2)C(O)C(C)O1 (stereo not drawn) [MTM (67)]	3.8
COc1ccc(CON=C(C(O)C(C)O)C(OC)C2Cc3cc4cc(OC5CC(OC6CC(O)C(O)C(C)O6)C(O)C(C)O5)c(C)c(O)c4c(O)c3C(=O)C2OC2CC(OC3CC(OC4CC(C)(O)C(O)C(C)O4)C(O)C(C)O3)C(O)C(C)O2)cc1 (stereo not drawn) [MTM (14Z)]	2.91
COC(C(=NOCC(=O)NCc1ccccc1)C(O)C(C)O)C1Cc2cc3cc(OC4CC(OC5CC(O)C(O)C(C)O5)C(O)C(C)O4)c(C)c(O)c3c(O)c2C(=O)C1OC1CC(OC2CC(OC3CC(C)(O)C(O)C(C)O3)C(O)C(C)O2)C(O)C(C)O1 (stereo not drawn) [MTM (31)]	1.83
COC(C(=NOCc1ccccc1)C(O)C(C)O)C1Cc2cc3cc(OC4CC(OC5CC(O)C(O)C(C)O5)C(O)C(C)O4)c(C)c(O)c3c(O)c2C(=O)C1OC1CC(OC2CC(OC3CC(C)(O)C(O)C(C)O3)C(O)C(C)O2)C(O)C(C)O1 (stereo not drawn) [MTM (2)]	1.08
COC(=O)C(Cc1ccccc1)NC(=O)CON=C(C(O)C(C)O)C(OC)C1Cc2cc3cc(OC4CC(OC5CC(O)C(O)C(C)O5)C(O)C(C)O4)c(C)c(O)c3c(O)c2C(=O)C1OC1CC(OC2CC(OC3CC(C)(O)C(O)C(C)O3)C(O)C(C)O2)C(O)C(C)O1 (stereo not drawn) [MTM (30)]	2.08
CNC(=O)C(Cc1c[nH]c2ccccc12)NC(=O)C(Cc1c[nH]c2ccccc12)NC(=O)CON=C(C(O)C(C)O)C(OC)C1Cc2cc3cc(OC4CC(OC5CC(O)C(O)C(C)O5)C(O)C(C)O4)c(C)c(O)c3c(O)c2C(=O)C1OC1CC(OC2CC(OC3CC(C)(O)C(O)C(C)O3)C(O)C(C)O2)C(O)C(C)O1 (stereo not drawn) [MTM (53)]	5.0
COC(C(=NOCC(C)C)C(O)C(C)O)C1Cc2cc3cc(OC4CC(OC5CC(O)C(O)C(C)O5)C(O)C(C)O4)c(C)c(O)c3c(O)c2C(=O)C1OC1CC(OC2CC(OC3CC(C)(O)C(O)C(C)O3)C(O)C(C)O2)C(O)C(C)O1 (stereo not drawn) [MTM (7Z)]	1.15
COC(C(=NOCC(=O)Nc1cccnc1)C(O)C(C)O)C1Cc2cc3cc(OC4CC(OC5CC(O)C(O)C(C)O5)C(O)C(C)O4)c(C)c(O)c3c(O)c2C(=O)C1OC1CC(OC2CC(OC3CC(C)(O)C(O)C(C)O3)C(O)C(C)O2)C(O)C(C)O1 (stereo not drawn) [MTM (49)]	2.4
COC(=O)C(Cc1c[nH]c2ccccc12)NC(=O)C(Cc1ccccc1)NC(=O)CON=C(C(O)C(C)O)C(OC)C1Cc2cc3cc(OC4CC(OC5CC(O)C(O)C(C)O5)C(O)C(C)O4)c(C)c(O)c3c(O)c2C(=O)C1OC1CC(OC2CC(OC3CC(C)(O)C(O)C(C)O3)C(O)C(C)O2)C(O)C(C)O1 (stereo not drawn) [MTM (23)]	7.31
COC(C(=NOCc1ccc([N+](=O)[O-])cc1)C(O)C(C)O)C1Cc2cc3cc(OC4CC(OC5CC(O)C(O)C(C)O5)C(O)C(C)O4)c(C)c(O)c3c(O)c2C(=O)C1OC1CC(OC2CC(OC3CC(C)(O)C(O)C(C)O3)C(O)C(C)O2)C(O)C(C)O1 (stereo not drawn) [MTM (11)]	1.30
CCON=C(C(O)C(C)O)C(OC)C1Cc2cc3cc(OC4CC(OC5CC(O)C(O)C(C)O5)C(O)C(C)O4)c(C)c(O)c3c(O)c2C(=O)C1OC1CC(OC2CC(OC3CC(C)(O)C(O)C(C)O3)C(O)C(C)O2)C(O)C(C)O1 (stereo not drawn) [MTM (4)]	1.15
COC(C(=NO)C(O)C(C)O)C1Cc2cc3cc(OC4CC(OC5CC(O)C(O)C(C)O5)C(O)C(C)O4)c(C)c(O)c3c(O)c2C(=O)C1OC1CC(OC2CC(OC3CC(C)(O)C(O)C(C)O3)C(O)C(C)O2)C(O)C(C)O1 (stereo not drawn) [MTM (3)]	1.86
COC(C(=NOCC(=O)NCc1ccc2cc[nH]c2c1)C(O)C(C)O)C1Cc2cc3cc(OC4CC(OC5CC(O)C(O)C(C)O5)C(O)C(C)O4)c(C)c(O)c3c(O)c2C(=O)C1OC1CC(OC2CC(OC3CC(C)(O)C(O)C(C)O3)C(O)C(C)O2)C(O)C(C)O1 (stereo not drawn) [MTM (64)]	12.3
COC(C(=NOCC(=O)Nc1ccccc1)C(O)C(C)O)C1Cc2cc3cc(OC4CC(OC5CC(O)C(O)C(C)O5)C(O)C(C)O4)c(C)c(O)c3c(O)c2C(=O)C1OC1CC(OC2CC(OC3CC(C)(O)C(O)C(C)O3)C(O)C(C)O2)C(O)C(C)O1 (stereo not drawn) [MTM (32)]	1.11
COC(C(=NOCC(=O)Nc1cccc2[nH]ccc12)C(O)C(C)O)C1Cc2cc3cc(OC4CC(OC5CC(O)C(O)C(C)O5)C(O)C(C)O4)c(C)c(O)c3c(O)c2C(=O)C1OC1CC(OC2CC(OC3CC(C)(O)C(O)C(C)O3)C(O)C(C)O2)C(O)C(C)O1 (stereo not drawn) [MTM (68)]	4.5
COC(C(=NOCCCCc1c[nH]c2ccccc12)C(O)C(C)O)C1Cc2cc3cc(OC4CC(OC5CC(O)C(O)C(C)O5)C(O)C(C)O4)c(C)c(O)c3c(O)c2C(=O)C1OC1CC(OC2CC(OC3CC(C)(O)C(O)C(C)O3)C(O)C(C)O2)C(O)C(C)O1 (stereo not drawn) [MTM (22)]	1.54
